Data published in patent publication US12269825B2, “Organic compounds” (INTRA-CELLULAR THERAPIES, INC., priority 2014, dated 2025).

Columns and labels:
[1] = Human plasma levels of Compounds Q through T after oral dosing with the Compound of Formula Q; type: in vivo; settings: day 8 after 7 day dosing (120 mg, 4 doses/day) with the Compound of Formula Q
Protocol: (§1) In addition, the in-vivo metabolism of the Compound of Formula Q is studied after oral administration to rats, dogs and humans. Plasma levels after administration are determined in all three species for the Compounds of Formula Q through T. The results of the studies indicate that metabolism of the Compound of Formula Q is rapid, and that the N-demethyl compounds are highly polar and excreted rapidly. Results of human plasma studies on day 8 after 7 day dosing (120 mg, 4 doses/day) with the Compound of Formula Q are shown below: […]

[2] = In-vivo metabolism after oral administration; settings: oral administration to rats, dogs and humans
Protocol: as §1

[3] = target: T1, CYP 3A4 (Homo sapiens, UniProt P08684); assay: In-vitro metabolism using subcellular fractions and isolated hepatocytes: N-demethylation; type: in vitro ADME
T1 construct: from tissue
T1 sequence (P08684 whole entry, species assumed): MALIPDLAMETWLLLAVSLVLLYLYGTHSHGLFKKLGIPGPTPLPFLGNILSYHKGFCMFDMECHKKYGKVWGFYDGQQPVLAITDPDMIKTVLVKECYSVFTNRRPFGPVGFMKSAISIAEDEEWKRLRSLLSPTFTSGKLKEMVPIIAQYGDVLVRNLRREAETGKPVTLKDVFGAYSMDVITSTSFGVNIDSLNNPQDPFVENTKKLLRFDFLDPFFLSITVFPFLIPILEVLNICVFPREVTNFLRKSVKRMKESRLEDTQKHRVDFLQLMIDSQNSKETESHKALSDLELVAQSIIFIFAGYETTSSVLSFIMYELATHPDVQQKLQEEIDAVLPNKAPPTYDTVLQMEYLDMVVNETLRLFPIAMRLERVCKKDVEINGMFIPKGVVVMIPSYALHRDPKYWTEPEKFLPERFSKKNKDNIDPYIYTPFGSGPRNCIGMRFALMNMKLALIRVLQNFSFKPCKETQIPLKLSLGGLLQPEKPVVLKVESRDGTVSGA
Excerpt: (§2) The in-vitro metabolism of the Compound of the Formula Q and its metabolites is studied using subcellular fractions and isolated hepatocytes. […] These two reductions are both catalyzed in the reverse direction (oxidation) by CYP 3A4.

[4] = test system: ketone reductase; assay: In-vitro metabolism using subcellular fractions and isolated hepatocytes: ketone reduction; type: in vitro ADME; settings: forms Compounds of Formula S and T, respectively
Excerpt: as §2

AUC [1] | Cmax [1] | Tmax [1] | rate of metabolism in vivo [2] | Structure (SMILES) | metabolic route: N-demethylation [3] | metabolic route: ketone reduction [4]
906 ng·h/mL | 79 ng/mL | 3.5 h |  | CN1CCN2c3c(cccc31)[C@@H]1CN(CCCC(O)c3ccc(F)cc3)CC[C@@H]12 (stereo partly drawn) [Compound S] |  | 
170 ng·h/mL | 37 ng/mL | 2.5 h |  | O=C(CCCN1CC[C@H]2[C@@H](C1)c1cccc3c1N2CCN3)c1ccc(F)cc1 [Compound R] |  | 
517 ng·h/mL | 38 ng/mL | 6 h |  | OC(CCCN1CC[C@H]2[C@@H](C1)c1cccc3c1N2CCN3)c1ccc(F)cc1 (stereo partly drawn) [Compound T] |  | 
347 ng·h/mL | 78 ng/mL | 2.5 h | rapid | CN1CCN2c3c(cccc31)[C@@H]1CN(CCCC(=O)c3ccc(F)cc3)CC[C@@H]12 [Compound Q, 4-((6bR,10aS)-3-methyl-2,3,6b,9,10,10a-hexahydro-1H-pyrido[3′,4′:4,5]pyrrolo[1,2,3-de]quinoxalin-8(7H)-yl)-1-(4-fluorophenyl)-1-butanone] | N-demethylated to the Compound of Formula R via the P450 cytochrome oxidase isoform 3A4 (CYP 3A4) | undergo ketone reduction via the enzyme ketone reductase
